PMC5063900, “A phase 1 study of the safety, tolerability, pharmacokinetics, and pharmacodynamics of TAK-063, a selective PDE10A inhibitor” (Psychopharmacology, 2016)
Marks after values point to notes of the source that are not given here.

Assay: Plasma and urine pharmacokinetics after single oral dose under fasting conditions
Assay type: in vivo, human
Conditions: for AUC(0-inf) / C max / CL/F (oral clearance) / T 1/2 / Vz/F (volume of distribution) / T max: plasma
Procedure: Healthy Japanese and non-Japanese subjects between 18 and 55 years of age were recruited to participate in the study. Criteria for exclusion included prior treatment with any investigational compound within 30 days of the first TAK-063 dose, a positive test for drugs of abuse or nicotine, and an increased risk for suicide. Subjects were randomized into 1 of 6 dose cohorts (3, 10, 30, 100, 300, and 1000 mg), with each cohort containing 11 TAK-063 subjects (five Japanese, six non-Japanese) and three placebo subjects (one Japanese, two non-Japanese) receiving a single dose under fasting conditions. Following a washout period of 7 days, subjects in cohort 3 (100 mg) received the same dose (100 mg) but under fed conditions. Serial plasma and urine samples were collected from all subjects prior to dosing and at specific time points or intervals up to 96 h postdose. Pharmacokinetic samples were processed immediately and frozen at −20 °C as duplicate sets. Plasma concentrations of TAK-063 and its metabolite M-I were subsequently measured by validated liquid chromatography-tandem mass spectrometry with a validated range of 0.5 to 1000 ng/mL for both analytes. The PK parameters analyzed for TAK-063 and its metabolite M-I in plasma and urine included area under the plasma concentration-time curve from time 0 to infinity (AUC (0-inf)), maximum observed plasma concentration (C max), time to reach C max (T max), terminal elimination half-life (T 1/2), oral clearance (CL/F), volume of distribution (Vz/F), and renal clearance (CLr). Metabolite-to-parent ratios were estimated from C max and AUC (0-inf) data. All statistical analyses were generated using SAS Version 9.2 (SAS, Cary, NC, USA). The PK parameters were derived using non-compartmental methods with WinNonlin Enterprise Version 6.3 (Pharsight Corp., Mountain View, CA, USA). Frequency or descriptive statistics were used for summary of data. Where indicated, percent coefficient of variation was included in the summary of continuous data. All statistical tests were 2-tailed at α = 0.05 level for significance unless otherwise stated. A power model was used to evaluate dose proportionality by race for fasted subjects; in the event of no observed race effect, dose proportionality was assessed for all subjects. To evaluate the food effect, a paired t test was performed on T max and natural log-transformed C max, and AUCs. An ANCOVA model with baseline scores and race as covariates was used to assess the effects of TAK-063 on CNSVS domain scores.

[1] = Japanese subjects, TAK-063 3 mg (n = 5), arithmetic mean
[2] = Japanese subjects, TAK-063 10 mg (n = 5), arithmetic mean
[3] = Japanese subjects, TAK-063 30 mg (n = 5), arithmetic mean
[4] = Japanese subjects, TAK-063 100 mg (n = 4), arithmetic mean
[5] = Japanese subjects, TAK-063 100 mg (n = 5; TAK-063 n = 4), arithmetic mean
[6] = Japanese subjects, TAK-063 300 mg (n = 4), arithmetic mean
[7] = Japanese subjects, TAK-063 300 mg (n = 5; TAK-063 n = 4), arithmetic mean
[8] = Japanese subjects, TAK-063 1000 mg (n = 5), arithmetic mean
[9] = fasting, all subjects, TAK-063 3 mg (n = 11), arithmetic mean (% CV)
[10] = fasting, all subjects, TAK-063 3 mg (n = 11; M-I n = 10), arithmetic mean (% CV)
[11] = fasting, all subjects, TAK-063 10 mg (n = 11), arithmetic mean (% CV)
[12] = fasting, all subjects, TAK-063 30 mg (n = 11), arithmetic mean (% CV)
[13] = fasting, all subjects, TAK-063 100 mg (n = 9), arithmetic mean (% CV)
[14] = fasting, all subjects, TAK-063 100 mg (n = 11; TAK-063 n = 9), arithmetic mean (% CV)

SMILES: COc1cn(-c2ccc(-n3cccn3)cc2F)nc(-c2ccnn2-c2ccccc2)c1=O [TAK-063]
- Increase in AUC over the dose range (333-fold increase in dose (3 to 1000 mg), fasting): up to 26 fold
- AUC(0-inf) [1]: 250.3 ng·h/mL
- C max [1]: 16.1 ng/mL
- CL/F (oral clearance) [1]: 12.5 L/h
- T 1/2 [1]: 15.9 h
- Vz/F (volume of distribution) [1]: 269.5 L
- T max (Japanese subjects, TAK-063 3 mg (n = 5), median): 4.0 h
- AUC(0-inf) [2]: 659.2 ng·h/mL
- C max [2]: 30.2 ng/mL
- CL/F (oral clearance) [2]: 15.8 L/h
- T 1/2 [2]: 18.2 h
- Vz/F (volume of distribution) [2]: 412.2 L
- T max (Japanese subjects, TAK-063 10 mg (n = 5), median): 4.0 h
- AUC(0-inf) [3]: 1027.3 ng·h/mL
- C max [3]: 55.7 ng/mL
- CL/F (oral clearance) [3]: 35.2 L/h
- T 1/2 [3]: 17.8 h
- Vz/F (volume of distribution) [3]: 889.4 L
- T max (Japanese subjects, TAK-063 30 mg (n = 5), median): 4.0 h
- AUC(0-inf) [4]: 1459.1 ng·h/mL
- T 1/2 [4]: 20.7 h
- C max (Japanese subjects, TAK-063 100 mg (n = 5), arithmetic mean): 89.9 ng/mL
- T max (Japanese subjects, TAK-063 100 mg (n = 5), median): 3.0 h
- CL/F (oral clearance) [5]: 75.8 L/h
- Vz/F (volume of distribution) [5]: 2288.5 L
- AUC(0-inf) [6]: 1636.0 ng·h/mL
- T 1/2 [6]: 20.3 h
- C max (Japanese subjects, TAK-063 300 mg (n = 5), arithmetic mean): 98.2 ng/mL
- T max (Japanese subjects, TAK-063 300 mg (n = 5), median): 4.0 h
- CL/F (oral clearance) [7]: 212.8 L/h
- Vz/F (volume of distribution) [7]: 6409.8 L
- AUC(0-inf) [8]: 4931.4 ng·h/mL
- C max [8]: 264.0 ng/mL
- CL/F (oral clearance) [8]: 233.8 L/h
- T 1/2 [8]: 11.7 h
- Vz/F (volume of distribution) [8]: 3953.4 L
- T max (Japanese subjects, TAK-063 1000 mg (n = 5), median): 4.0 h
- C max [9]: 11.8 (51) ng/mL
- CL/F (oral clearance) [9]: 14.0 (48) L/h
- Vz/F (volume of distribution) [9]: 407.0 (64) L
- T max (fasting, all subjects, TAK-063 3 mg (n = 11), median (minimum, maximum)): 4.0 (2.0, 24.0) h
- AUC(0-inf) [10]: 244.9 (32) ng·h/mL
- T 1/2 [10]: 20.4 (48) h
- AUC(0-inf) [11]: 576.7 (29) ng·h/mL
- C max [11]: 26.7 (34) ng/mL
- CL/F (oral clearance) [11]: 18.7 (30) L/h
- T 1/2 [11]: 19.9 (18) h
- Vz/F (volume of distribution) [11]: 529.5 (29) L
- T max (fasting, all subjects, TAK-063 10 mg (n = 11), median (minimum, maximum)): 4.0 (2.0, 16.0) h
- AUC(0-inf) [12]: 1003.6 (42) ng·h/mL
- C max [12]: 46.9 (61) ng/mL
- CL/F (oral clearance) [12]: 33.1 (27) L/h
- T 1/2 [12]: 20.4 (30) h
- Vz/F (volume of distribution) [12]: 954.8 (33) L
- T max (fasting, all subjects, TAK-063 30 mg (n = 11), median (minimum, maximum)): 4.0 (3.0, 16.0) h
- AUC(0-inf) [13]: 1406.8 (38)^c ng·h/mL
- T 1/2 [13]: 24.6 (37)^c h
- C max (fasting, all subjects, TAK-063 100 mg (n = 11), arithmetic mean (% CV)): 80.5 (48) ng/mL
- T max (fasting, all subjects, TAK-063 100 mg (n = 11), median (minimum, maximum)): 3.0 (1.5, 6.0) h
- CL/F (oral clearance) [14]: 80.3 (35)^c L/h
- Vz/F (volume of distribution) [14]: 2802.2 (46)^c L
- AUC(0-inf) (fasting, all subjects, TAK-063 300 mg (n = 8), arithmetic mean (% CV)): 1900.8 (39)^d ng·h/mL
